Paper PMC4872774, “DYRK1B as therapeutic target in Hedgehog/GLI-dependent cancer cells with Smoothened inhibitor resistance” (Oncotarget, 2016)

Target: Dual-Specificity-Tyrosine-Phosphorylation-Regulated Kinase 1B (DYRK1B) (Homo sapiens, UniProt Q9Y463)
Test: radiometric […]-ATP kinase assay with recombinant DYRK1B and DYRKtide substrate ([…] ATP)
Format: biochemical

Dual-Specificity-Tyrosine-Phosphorylation-Regulated Kinase 1B (DYRK1B), sequence (Q9Y463 whole entry): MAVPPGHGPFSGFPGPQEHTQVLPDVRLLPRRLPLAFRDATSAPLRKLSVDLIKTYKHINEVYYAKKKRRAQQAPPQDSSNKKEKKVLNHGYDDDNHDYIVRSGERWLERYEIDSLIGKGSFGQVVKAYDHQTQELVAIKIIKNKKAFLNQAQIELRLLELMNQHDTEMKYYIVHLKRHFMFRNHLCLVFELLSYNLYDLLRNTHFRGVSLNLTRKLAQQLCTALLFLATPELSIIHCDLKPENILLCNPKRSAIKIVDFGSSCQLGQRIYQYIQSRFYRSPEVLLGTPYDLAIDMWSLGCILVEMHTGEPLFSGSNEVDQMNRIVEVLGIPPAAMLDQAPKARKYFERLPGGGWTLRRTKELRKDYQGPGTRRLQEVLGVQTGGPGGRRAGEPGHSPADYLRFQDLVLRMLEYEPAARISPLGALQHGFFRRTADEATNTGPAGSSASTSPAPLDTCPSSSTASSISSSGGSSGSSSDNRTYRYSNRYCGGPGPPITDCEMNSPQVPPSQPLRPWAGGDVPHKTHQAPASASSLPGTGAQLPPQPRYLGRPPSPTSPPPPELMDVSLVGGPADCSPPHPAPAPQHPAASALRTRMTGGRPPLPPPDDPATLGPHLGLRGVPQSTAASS

Compound: O=C(Nc1nc2cc(C(F)(F)F)ccc2[nH]1)c1csc(-c2ccc3c(c2)CCO3)n1 [DYRKi]
- IC50: 90 nM
